# Columns and labels:
# [1] = target: T1, human platelets (thromboxane receptor sites) (Homo sapiens, UniProt P21731); test: Human platelet system: antagonism of aggregation by 11,9-(epoxymethano) PGH2; type: cell-based; details: for Kb: against 11,9-epoxymethano analogue of PGH2, compound added 5 minutes previously, Gaddum-Schild Equation, read-out: AFFINITY CONSTANTS (KB), Human Platelets (converted)
# T1 construct: Platelet-rich plasma is obtained from fresh, citrated human blood; endogenous in cells; host or cells: human platelets (platelet-rich plasma from fresh, citrated human blood)
# T1 sequence (P21731 1-343): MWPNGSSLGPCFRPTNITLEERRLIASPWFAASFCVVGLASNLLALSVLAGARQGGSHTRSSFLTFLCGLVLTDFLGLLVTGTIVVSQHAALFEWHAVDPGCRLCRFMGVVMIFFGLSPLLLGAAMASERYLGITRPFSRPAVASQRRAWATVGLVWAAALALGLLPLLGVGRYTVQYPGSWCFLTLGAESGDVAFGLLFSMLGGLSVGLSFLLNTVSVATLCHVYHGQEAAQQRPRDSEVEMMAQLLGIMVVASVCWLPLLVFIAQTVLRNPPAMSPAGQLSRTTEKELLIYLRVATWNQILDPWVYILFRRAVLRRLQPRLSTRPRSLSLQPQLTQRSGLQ
# Description: Platelet-rich plasma is obtained from fresh, citrated human blood. Addition of the 11,9-epoxymethano analogue of PGH2 (1×10^-7 M to 5×10^-7 M) causes immediate aggregation recorded as an increase in light transmission (600 nm). In a second experiment the individual compounds are added 5 minutes previously to addition of the PGH2 analogue. The dose of the PGH2 analogue added is then increased to a level which gives a similar response to that obtained in the absence of antagonist. The affinity constant, KB, for the compound is calculated according to the Gaddum-Schild Equation (based on Law of Mass Action).
# [B]=molar concentration of compound
# (§1) Results typical of those obtained for the various compounds (all of which are of the formula shown at the beginning of Example 4 except where otherwise indicated) are shown in Table 3.
# [2] = tested on: rabbit aorta (thromboxane receptor sites); test: Rabbit aorta system: antagonism of contraction by 11,9-(epoxymethano) PGH2; type: cell-based; design: key to Rabbit Aorta, affinity constant not given: (2): Partial agonist; details: for Rabbit Aorta, affinity constant not given / Kb: against 11,9-(epoxymethano) PGH2, compound added 30 minutes previously; for Kb: Oryctolagus cuniculus, 0.5 h, Gaddum-Schild Equation, read-out: AFFINITY CONSTANTS, Rabbit Aorta (converted)
# From the text: It is believed that such inhibition is the result of the compounds being thromboxane antagonists and the activity of the compounds is for convenience hereinafter discussed in these terms. […] Structural features which tend to endow a compound with a more pure antagonist form of activity are (a) the absence of a halogen substituent, particularly at the para position, in the benzene ring of a phenoxyethyl O-substituted oxime; (b) the absence of a halogen substituent at the meta position of a benzyl O-substituted oxime; and (c) the presence of two benzene rings in the oxime substituent,these rings being located, for example, on a carbon atom joined directly to the oxygen atom of the oxime group. Some activity has also been alserved in compounds according to the present invention on guinea pig tracheal muscle.
# Spiral strips of thoracic aorta are suspended in Kreb's-Henseleit solution and aerated with 95% O2 /5% CO2 at 37° C. Tension changes are recorded with a Grass FTO3 force transducer. Initially, cumulative dose response curves to 11,9-(epoxymethano) PGH2 (2×10^-9, 1×10^-8, 5×10^-8 and 2.5×10^-7 M) are obtained. In a second experiment the individual compounds are added 30 minutes previously to the addition of the series of agonist doses. Affinity constants are calculated as above.
# as §1
# α-adrenoceptors = test: Rabbit aorta strip: block of the contractile action of noradrenaline; type: cell-based
# [3] = tested on: platelets, archidonic acid; test: Platelets: block of the aggregatory action of arachidonic acid; type: cell-based, human; details: converted to TXA2 by the platelet enzyme system
smiles,measurement,setting,value
O=C(O)CCC/C=C\C[C@@H]1[C@@H](C=NOCCOc2ccc(Cl)cc2)[C@@H]2C=C[C@H]1C2 (relative stereo),Kb,[1],10000 nM
same,"Rabbit Aorta, affinity constant not given",[2],(2)
"O=C(O)CCC/C=C\C[C@@H]1[C@@H](C=NOCc2ccc(F)cc2)[C@@H]2C=C[C@H]1C2 (relative stereo) [Example 1, 5-endo-(6'-Carboxyhex-2'-Z-enyl)-6-exo-(O-p-fluorobenzyloxyiminomethyl)-bicyclo[2,2,1]hept-2Z-ene]",activity in the platelet test (in words),"[1]; 11,9-(epoxymethano) PGH2, human platelets in vitro",antagonists in the platelet test
same,activity in the rabbit aorta strip test (in words),"[2]; 11,9-(epoxymethano) PGH2, rabbit aorta strip",pure antagonists in the rabbit aorta strip test
same,block of contractile action of noradrenaline (in words),α-adrenoceptors,do not block the contractile action of noradrenaline
same,block of aggregatory action of archidonic acid (in words),[3],block the aggregatory action of archidonic acid
CCCCCON=C[C@H]1[C@@H]2CC[C@@H](C2)[C@@H]1C/C=C\CCCC(=O)O (relative stereo) [(CH2)4 CH3],Kb,[1],5880 nM
same,Kb,[2],6670 nM
O=C(O)CCC/C=C\C[C@@H]1[C@@H](C=NOCc2ccc(F)cc2)[C@@H]2C=C[C@H]1C2 (relative stereo) [drawing 29],Kb,[1],2500 nM
same,Kb,[2],278 nM
O=C(O)CCC/C=C\C[C@H]1[C@H]2CC[C@H](C2)[C@@H]1C=NOC(c1ccccc1)c1ccccc1 (relative stereo),Kb,[1],20.8 nM
same,Kb,[2],5260 nM
O=C(O)CCC/C=C\C[C@H]1[C@H]2CC[C@H](C2)[C@@H]1C=NOCc1ccc(F)cc1 (relative stereo),Kb,[1],1720 nM
same,Kb,[2],435 nM
O=C(O)CCCCCC[C@H]1[C@H]2CC[C@H](C2)[C@@H]1C=NOCc1ccc(F)cc1 (relative stereo),Kb,[1],12000 nM
O=C(O)CCC/C=C\C[C@@H]1[C@@H](C=NOCc2ccccc2)[C@@H]2C=C[C@H]1C2 (relative stereo),Kb,[1],5260 nM
same,Kb,[2],667 nM
O=C(O)CCC/C=C\C[C@H]1[C@H]2CC[C@H](C2)[C@@H]1C=NOCc1cccc(C(F)(F)F)c1 (relative stereo),"Rabbit Aorta, affinity constant not given",[2],(2)
O=C(O)CCC/C=C\C[C@H]1[C@H]2CC[C@H](C2)[C@@H]1C=NOCc1cccc(Cl)c1 (relative stereo),Kb,[1],1690 nM
same,"Rabbit Aorta, affinity constant not given",[2],(2)
O=C(O)CCC/C=C\C[C@@H]1[C@@H](C=NOCc2ccc(Cl)cc2)[C@@H]2C=C[C@H]1C2 (relative stereo),Kb,[1],4760 nM
same,Kb,[2],149 nM
O=C(O)CCC/C=C\C[C@@H]1[C@@H](C=NOC(c2ccccc2)c2ccccc2)[C@@H]2C=C[C@H]1C2 (relative stereo),Kb,[1],19.6 nM
same,Kb,[2],1690 nM
O=C(O)CCC/C=C\C[C@H]1[C@H]2CC[C@H](C2)[C@@H]1C=NOCc1ccc(Cl)cc1Cl (relative stereo),Kb,[1],3570 nM
same,Kb,[2],238 nM
O=C(O)CCC/C=C\C[C@@H]1[C@@H](C=NOCCOc2ccc(F)cc2)[C@@H]2C=C[C@H]1C2 (relative stereo),Kb,[1],25000 nM
same,"Rabbit Aorta, affinity constant not given",[2],(2)
O=C(O)CCC/C=C\C[C@@H]1[C@@H](C=NOCCOc2ccccc2)[C@@H]2C=C[C@H]1C2 (relative stereo),Kb,[1],20000 nM
same,Kb,[2],400 nM

# Reference: patent US4430345A, “Prostaglandins” (National Research Development Corporation, priority 1979, dated 1984)
